Patent US11802120B2, “Fused cyclic urea derivatives as CRHR2 antagonist” (RaQualia Pharma Inc., priority 2018, dated 2023)
pIC50: −log10 of the molar value.

Target: T1, human CRHR2-alpha (Homo sapiens, UniProt Q13324)
T1 sequence (Q13324 1-411): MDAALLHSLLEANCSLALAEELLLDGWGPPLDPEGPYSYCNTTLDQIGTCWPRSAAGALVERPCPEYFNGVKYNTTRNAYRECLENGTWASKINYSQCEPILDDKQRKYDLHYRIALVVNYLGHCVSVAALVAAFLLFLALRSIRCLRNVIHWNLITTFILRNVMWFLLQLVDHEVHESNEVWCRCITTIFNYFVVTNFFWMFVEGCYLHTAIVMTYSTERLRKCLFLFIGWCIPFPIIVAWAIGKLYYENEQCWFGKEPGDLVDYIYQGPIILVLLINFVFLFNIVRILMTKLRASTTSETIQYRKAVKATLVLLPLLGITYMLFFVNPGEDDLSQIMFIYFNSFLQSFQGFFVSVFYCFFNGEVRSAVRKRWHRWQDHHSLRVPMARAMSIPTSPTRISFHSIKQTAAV
Assay: cAMP functional assay for human CRHR2 (LANCE Ultra cAMP, TR-FRET)
Format: cell-based
Details: CHO-K1 cells expressing human CRHR2-alpha, agonist human urocortin2 at EC80, cAMP; read-out: IC50 against CRHR2
Method: cAMP functional assay for human CRHR1 and CRHR2
The ability of the compounds of this invention to inhibit either CRHR2 or CRHR1 is assessed by 3′,5′-cyclic adenosine monophosphate (cAMP) production in cells using the LANCE Ultra cAMP assay kit (ParkinElmer), which are designed based on the homogeneous time-resolved fluorescence resonance energy transfer (TR-FRET) immunoassay.
CHO-K1 (Chinese hamster ovary) cells stably expressing either human CRHR2-alpha (DiscoveRX, Cat. 95-0048C2) or human CRHR1-beta (DiscoveRX, Cat. 95-0047C2) are grown in HAM's F12 media supplemented with 10% fetal bovine serum (FBS), 100 units/mL penicillin, 100 microg/mL hygromycin and 0.5 microg/mL geneticin at 37° C. in 5% CO2 humidified incubator to 80% confluence. After 7 hours starvation treatment in culture media containing 0.1% FBS, the cells are washed with Hanks balanced salt solution (HBSS) and cryopreserved.
For cAMP assay, frozen cells are thawed and washed with HBSS, followed by resuspended in assay buffer (HBSS containing 0.1% bovine serum albumin, 0.5 mM isobutylmethylxanthine and 5 mM Hepes, pH 7.4) at the appropriate concentration for the assay. The cell suspensions are plated on 384-well microplates (Greiner Bio-One) at a density of 4,000 cells per well. After preincubating the cells with various concentrations of the compounds for 30 min at 25° C., an assay buffer containing EC80 concentration of each agonist is added and the cells are incubated for 30 min at 25° C. Human urocortin2 (Peptide Institute) and CRF (Peptide Institute) are used as agonists for CRHR2 and CRHR1, respectively. For the termination of assay, europium-labeled cAMP tracer and ULight (registered trademark) dye labeled cAMP antibodies, both prepared with Lance-Ultra cAMP detection reagent (Perkin Elmer) are added in the plate and incubate for 60 min at 25° C. After incubation, TR-FRET signal is detected by EnVision plate reader (PerkinElmer). The IC50 values for compounds are calculated from dose-response curves by fitting the percent inhibition using XLfit (ID Business Solutions).

pIC50 | SMILES
> 6.52 | Cc1ncc(Cl)cc1C(=O)N[C@H]1CC[C@H](Cn2c(=O)n(-c3ccc(OC(F)F)nc3)c3ccccc32)CC1 [Example 97, 5-chloro-N-((1r,4r)-4-((3-(6-(difluoromethoxy)pyridin-3-yl)-2-oxo-2,3-dihydro-1H-benzo[d]imidazol-1-yl)methyl)cyclohexyl)-2-methylnicotinamide]
> 6.52 | Cc1ncc(Cl)cc1C(=O)N[C@H]1CC[C@H](Cn2c(=O)n(-c3ccc(NC4CC4)nc3)c3ccccc32)CC1 [Example 101, 5-chloro-N-((1r,4r)-4-((3-(6-(cyclopropylamino)pyridin-3-yl)-2-oxo-2,3-dihydro-1H-benzo[d]imidazol-1-yl)methyl)cyclohexyl)-2-methylnicotinamide]
> 6.52 | Cc1ncc(Cl)cc1C(=O)N[C@H]1CC[C@H](Cn2c(=O)n(-c3ccc(NCC4CC4)nc3)c3ccccc32)CC1 [Example 105, 5-chloro-N-((1r,4r)-4-((3-(6-((cyclopropylmethyl)amino)pyridin-3-yl)-2-oxo-2,3-dihydro-1H-benzo[d]imidazol-1-yl)methyl)cyclohexyl)-2-methylnicotinamide]
> 6.52 | Cc1ncc(Cl)cc1C(=O)N[C@H]1CC[C@H](Cn2c(=O)n(-c3ccc(N[C@@H]4CCOC4)nc3)c3ccccc32)CC1 [Example 107, 5-chloro-2-methyl-N-((1R,4R)-4-((2-oxo-3-(6-(((R)-tetrahydro-furan-3-yl)amino)pyridin-3-yl)-2,3-dihydro-1H-benzo[d]imidazol-1-yl)methyl)cyclohexyl) nicotinamide]
> 6.52 | Cc1ncc(Cl)cc1C(=O)N[C@H]1CC[C@H](Cn2c(=O)n(-c3ccc(NC4CC(F)(F)C4)nc3)c3ccccc32)CC1 [Example 108, 5-chloro-N-((1r,4r)-4-((3-(6-((3,3-difluorocyclobutyl)amino)pyridin-3-yl)-2-oxo-2,3-dihydro-1H-benzo[d]imidazol-1-yl)methyl)cyclohexyl)-2-methylnicotinamide]
> 6.52 | Cc1ncc(Cl)cc1C(=O)N[C@H]1CC[C@H](Cn2c(=O)n(-c3ccc(OCC4CC4)nc3)c3ccccc32)CC1 [Example 112, 5-chloro-N-(4-((3-(6-(cyclopropylmethoxy)pyridin-3-yl)-2-oxo-2,3-dihydro-1H-benzo [d]imidazol-1-yl)methyl)cyclohexyl)-2-methylnicotinamide]
> 6.52 | Cc1ncc(Cl)cc1C(=O)N[C@H]1CC[C@H](Cn2c(=O)n(-c3ccc(OC4CC4)nc3)c3ccccc32)CC1 [Example 113, 5-chloro-N-(4-((3-(6-cyclopropoxypyridin-3-yl)-2-oxo-2,3-dihydro-1H-benzo [d]imidazol-1-yl)methyl)cyclohexyl)-2-methylnico-tinamide]

Second part, the compound before the results:

SMILES | pIC50
Cc1ncc(Cl)cc1C(=O)N[C@H]1CC[C@H](Cn2c(=O)n(-c3ccc(NC[C@@H]4CCCO4)nc3)c3ccccc32)CC1 [Example 109, 5-chloro-2-methyl-N-((1S,4r)-4-((2-oxo-3-(6-((((S)-tetrahydro-furan-2-yl)methyl)amino)pyridin-3-yl)-2,3-dihydro-1H-benzo[d]imidazol-1-yl)methyl)cyclohexyl)nicotinamide] | > 6.52
Cc1ncc(Cl)cc1C(=O)N[C@H]1CC[C@H](Cn2c(=O)n(-c3ccc(NC[C@H]4CCCO4)nc3)c3ccccc32)CC1 [Example 110, 5-chloro-2-methyl-N-((1R,4r)-4-((2-oxo-3-(6-((((R)-tetra-hydrofuran-2-yl)methyl)amino)pyridin-3-yl)-2,3-dihydro-1H-benzo[d]imidazol-1-yl)methyl)cyclohexyl)nicotinamide] | > 6.52
Cc1ncc(Cl)cc1C(=O)N[C@H]1CC[C@H](Cn2c(=O)n(-c3ccc(N4CCCC4=O)nc3)c3ccccc32)CC1 [Example 111, 5-chloro-2-methyl-N-((1r,4r)-4-((2-oxo-3-(6-(2-oxopyrrolidin-1-yl)pyridin-3-yl)-2,3-dihydro-1H-benzo[d]imidazol-1-yl)methyl)cyclohexyl)nicotinamide] | > 6.52
CNc1cnc(-n2c(=O)n(C[C@H]3CC[C@H](NC(=O)c4cc(Cl)cnc4C)CC3)c3ccccc32)cn1 [Example 115, 5-chloro-2-methyl-N-((1r,4r)-4-((3-(5-(methylamino)pyrazin-2-yl)-2-oxo-2,3-dihydro-1H-benzo [d]imidazol-1-yl)methyl)cyclo-hexyl)nicotinamide] | > 6.52
Cc1ncc(Cl)cc1C(=O)N[C@H]1CC[C@H](Cn2c(=O)n(-c3cnc(N(C)C)cn3)c3ccccc32)CC1 [Example 116, 5-chloro-N-((1r,4r)-4-((3-(5-(dimethylamino)pyrazin-2-yl)-2-oxo-2,3-dihydro-1H-benzo[d]imidazol-1-yl)methyl)cyclo-hexyl)-2-methylnicotinamide] | > 6.52
COc1cc(-n2c(=O)n(C[C@H]3CC[C@H](NC(=O)c4cc(Cl)cnc4C)CC3)c3ccccc32)cnc1OC [Example 118, 5-chloro-N-((1r,4r)-4-((3-(5,6-dimethoxypyridin-3-yl)-2-oxo-2,3-dihydro-1H-benzo[d]imidazol-1-yl)methyl)cyclo-hexyl)-2-methylnicotinamide] | > 6.52
Cc1cc(-n2c(=O)n(C[C@H]3CC[C@H](NC(=O)c4cc(Cl)cnc4C)CC3)c3ccccc32)cnc1C [Example 119, 5-chloro-N-((1r,4r)-4-((3-(5,6-dimethylpyridin-3-yl)-2-oxo-2,3-dihydro-1H-benzo[d]imidazol-1-yl)methyl)cyclo-hexyl)-2-methylnicotinamide] | > 6.52
COc1ncc(-n2c(=O)n(C[C@H]3CC[C@H](NC(=O)c4cc(Cl)cnc4C)CC3)c3ccccc32)cc1C [Example 120, 5-chloro-N-((1r,4r)-4-((3-(6-methoxy-5-methylpyridin-3-yl)-2-oxo-2,3-dihydro-1H-benzo[d]imidazol-1-yl)methyl)cyclohexyl)-2-methylnicotinamide] | > 6.52
Cc1ccc(-n2c(=O)n(C[C@H]3CC[C@H](NC(=O)c4cc(Cl)cnc4C)CC3)c3cccc(F)c32)cn1 [Example 121, 5-chloro-N-((1r,4r)-4-((4-fluoro-3-(6-methylpyridin-3-yl)-2-oxo-2,3-dihydro-1H-benzo[d]imidazol-1-yl)methyl)cyclo-hexyl)-2-methylnicotinamide] | > 6.52
Cc1ccc(-n2c(=O)n(C[C@H]3CC[C@H](NC(=O)c4cc(Cl)cnc4C)CC3)c3ccc(F)cc32)cn1 [Example 122, 5-chloro-N-((1r,4r)-4-((5-fluoro-3-(6-methylpyridin-3-yl)-2-oxo-2,3-dihydro-1H-benzo[d]imidazol-1-yl)methyl)cyclo-hexyl)-2-methylnicotinamide] | > 6.52
Cc1ccc(-n2c(=O)n(C[C@H]3CC[C@H](NC(=O)c4cc(Cl)cnc4C)CC3)c3cc(F)ccc32)cn1 [Example 123, 5-chloro-N-((1r,4r)-4-((6-fluoro-3-(6-methylpyridin-3-yl)-2-oxo-2,3-dihydro-1H-benzo[d]imidazol-1-yl)methyl)cyclo-hexyl)-2-methylnicotinamide] | > 6.52
Cc1ccc(-n2c(=O)n(C[C@H]3CC[C@H](NC(=O)c4cc(Cl)cnc4C)CC3)c3c(F)cccc32)cn1 [Example 124, 5-chloro-N-((1r,4r)-4-((7-fluoro-3-(6-methylpyridin-3-yl)-2-oxo-2,3-dihydro-1H-benzo[d]imidazol-1-yl)methyl)cyclo-hexyl)-2-methylnicotinamide] | > 6.52
